Assay results reported in ChEMBL document CHEMBL2010722, “Structure-activity relationship study of beta-carboline derivatives as haspin kinase inhibitors” (Bioorg Med Chem Lett, 2012).

Key:
[1] = molecular target: Tyrosine-protein kinase ABL1 (Homo sapiens) (UniProt P00519); assay: Inhibition of ABL at 10 uM
[2] = tested on: ALK tyrosine kinase receptor (Homo sapiens), Q9UM73 [F1174L]; assay: Inhibition of ALK F1174L mutant at 10 uM
[3] = tested on: Epidermal growth factor receptor (Homo sapiens), P00533 [L858R,T790M]; assay: Inhibition of EGFR T790M/L858R mutant at 10 uM; format: protein assay
[4] = tested on: Proto-oncogene tyrosine-protein kinase receptor Ret (Homo sapiens), P07949 [M918T]; assay: Inhibition of RET M918T mutant at 10 uM
[5] = molecular target: RAC-alpha serine/threonine-protein kinase (Homo sapiens) (UniProt P31749); assay: Inhibition of AKT1 at 10 uM
RAC-alpha serine/threonine-protein kinase (Homo sapiens), sequence (P31749 whole entry): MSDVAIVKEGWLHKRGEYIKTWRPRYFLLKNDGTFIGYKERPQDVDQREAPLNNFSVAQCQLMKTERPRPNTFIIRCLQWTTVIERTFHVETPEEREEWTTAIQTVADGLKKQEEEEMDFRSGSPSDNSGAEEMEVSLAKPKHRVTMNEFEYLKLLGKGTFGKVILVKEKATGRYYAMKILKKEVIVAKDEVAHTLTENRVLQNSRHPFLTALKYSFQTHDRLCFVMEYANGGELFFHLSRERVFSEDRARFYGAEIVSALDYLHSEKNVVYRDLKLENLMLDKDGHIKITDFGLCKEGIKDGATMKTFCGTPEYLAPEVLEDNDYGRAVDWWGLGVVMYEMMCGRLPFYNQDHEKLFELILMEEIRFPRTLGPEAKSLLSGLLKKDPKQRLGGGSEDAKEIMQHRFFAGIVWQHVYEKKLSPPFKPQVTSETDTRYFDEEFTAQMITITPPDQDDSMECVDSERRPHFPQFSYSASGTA

[6] = molecular target: AMP-activated protein kinase, AMPK (Homo sapiens) (UniProt P54646+O43741+P54619+Q9UGJ0+Q9Y478+Q13131+Q9UGI9); assay: Inhibition of AMPKalpha2/beta1/gamma1 at 10 uM; format: protein-complex assay
[7] = molecular target: Aurora kinase A (Homo sapiens) (UniProt O14965); assay: Inhibition of AurA at 10 uM
[8] = tested on: Serine/threonine-protein kinase B-raf (Homo sapiens), P15056 [V600E]; assay: Inhibition of BRAF V600E mutant at 10 uM
[9] = molecular target: Serine/threonine-protein kinase BRSK1 (Homo sapiens) (UniProt Q8TDC3); assay: Inhibition of BRSK1 at 10 uM
[10] = molecular target: Serine/threonine-protein kinase BRSK2 (Homo sapiens) (UniProt Q8IWQ3); assay: Inhibition of BRSK2 at 10 uM
Serine/threonine-protein kinase BRSK2 (Homo sapiens), sequence (Q8IWQ3 whole entry): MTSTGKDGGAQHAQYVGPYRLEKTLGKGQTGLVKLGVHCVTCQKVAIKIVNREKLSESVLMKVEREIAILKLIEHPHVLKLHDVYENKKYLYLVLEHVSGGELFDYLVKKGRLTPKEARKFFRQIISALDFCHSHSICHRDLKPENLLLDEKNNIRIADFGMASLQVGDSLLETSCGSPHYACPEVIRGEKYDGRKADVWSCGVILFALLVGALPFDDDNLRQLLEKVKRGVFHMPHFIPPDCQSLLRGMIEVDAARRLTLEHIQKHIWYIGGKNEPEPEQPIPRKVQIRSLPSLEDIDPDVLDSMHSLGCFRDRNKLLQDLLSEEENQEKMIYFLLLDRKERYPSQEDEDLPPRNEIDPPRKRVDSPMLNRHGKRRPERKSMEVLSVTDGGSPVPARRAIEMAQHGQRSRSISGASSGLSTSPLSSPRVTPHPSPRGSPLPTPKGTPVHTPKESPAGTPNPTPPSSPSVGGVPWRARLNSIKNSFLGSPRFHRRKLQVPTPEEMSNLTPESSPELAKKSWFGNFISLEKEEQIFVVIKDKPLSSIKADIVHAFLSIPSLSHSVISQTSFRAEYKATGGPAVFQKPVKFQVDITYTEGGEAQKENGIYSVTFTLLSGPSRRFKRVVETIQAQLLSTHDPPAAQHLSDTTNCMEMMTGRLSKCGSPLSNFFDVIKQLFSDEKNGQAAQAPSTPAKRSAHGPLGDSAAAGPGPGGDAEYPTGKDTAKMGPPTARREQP

[11] = molecular target: Calcium/calmodulin-dependent protein kinase type II subunit delta (Homo sapiens) (UniProt Q13557); assay: Inhibition of CaMK2d at 10 uM
[12] = molecular target: Cyclin-dependent kinase 2/cyclin E1 (Homo sapiens) (UniProt P24864+P24941); assay: Inhibition of CDK2-Cyclin E1 at 10 uM; format: protein-complex assay
[13] = molecular target: Serine/threonine-protein kinase Chk1 (Homo sapiens) (UniProt O14757); assay: Inhibition of CHK1 at 10 uM
Serine/threonine-protein kinase Chk1 (Homo sapiens), sequence (O14757 whole entry, canonical isoform): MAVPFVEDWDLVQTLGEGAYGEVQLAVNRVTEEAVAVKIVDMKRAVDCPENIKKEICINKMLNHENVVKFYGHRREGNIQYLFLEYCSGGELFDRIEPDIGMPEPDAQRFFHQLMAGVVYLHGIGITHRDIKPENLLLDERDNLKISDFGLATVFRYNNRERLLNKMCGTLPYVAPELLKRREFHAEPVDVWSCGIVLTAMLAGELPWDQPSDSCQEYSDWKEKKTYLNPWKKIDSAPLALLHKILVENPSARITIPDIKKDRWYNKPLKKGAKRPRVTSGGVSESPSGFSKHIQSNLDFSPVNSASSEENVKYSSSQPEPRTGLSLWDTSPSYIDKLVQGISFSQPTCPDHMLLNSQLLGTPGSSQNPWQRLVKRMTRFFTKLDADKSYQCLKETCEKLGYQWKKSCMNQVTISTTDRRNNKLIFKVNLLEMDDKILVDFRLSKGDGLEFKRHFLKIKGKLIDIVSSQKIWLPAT

[14] = molecular target: Casein kinase I isoform gamma-1 (Homo sapiens) (UniProt Q9HCP0); assay: Inhibition of CK1g1 at 10 uM
Casein kinase I isoform gamma-1 (Homo sapiens), sequence (Q9HCP0 whole entry, looked up, canonical isoform): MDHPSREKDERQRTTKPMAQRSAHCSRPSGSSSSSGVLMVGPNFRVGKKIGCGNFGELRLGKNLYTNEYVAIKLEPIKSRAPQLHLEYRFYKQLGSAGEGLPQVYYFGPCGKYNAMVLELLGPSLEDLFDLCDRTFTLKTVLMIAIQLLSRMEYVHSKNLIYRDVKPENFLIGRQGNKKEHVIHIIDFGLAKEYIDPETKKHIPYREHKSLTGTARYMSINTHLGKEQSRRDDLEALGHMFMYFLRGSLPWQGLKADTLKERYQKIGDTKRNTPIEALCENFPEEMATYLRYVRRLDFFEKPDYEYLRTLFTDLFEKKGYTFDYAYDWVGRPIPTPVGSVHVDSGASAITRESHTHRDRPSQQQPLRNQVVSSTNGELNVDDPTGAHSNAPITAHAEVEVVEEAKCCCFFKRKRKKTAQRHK

[15] = molecular target: Casein kinase I isoform gamma-2 (Homo sapiens) (UniProt P78368); assay: Inhibition of CK1g2 at 10 uM
Casein kinase I isoform gamma-2 (Homo sapiens), sequence (P78368 whole entry, looked up, canonical isoform): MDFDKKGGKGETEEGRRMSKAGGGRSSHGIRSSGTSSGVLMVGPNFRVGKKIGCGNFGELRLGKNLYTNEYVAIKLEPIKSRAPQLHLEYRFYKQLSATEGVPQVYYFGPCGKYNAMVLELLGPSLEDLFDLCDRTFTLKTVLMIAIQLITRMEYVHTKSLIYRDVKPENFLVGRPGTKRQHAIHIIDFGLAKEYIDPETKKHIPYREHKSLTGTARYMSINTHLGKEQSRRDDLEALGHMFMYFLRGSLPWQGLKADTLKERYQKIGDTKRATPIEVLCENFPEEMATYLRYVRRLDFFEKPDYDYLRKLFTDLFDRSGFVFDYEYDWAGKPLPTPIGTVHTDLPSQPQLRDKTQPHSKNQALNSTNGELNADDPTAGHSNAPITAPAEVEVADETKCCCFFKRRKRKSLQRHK

[16] = molecular target: Casein kinase I isoform delta (Homo sapiens) (UniProt P48730); assay: Inhibition of CK1d at 10 uM
[17] = molecular target: Casein kinase I isoform epsilon (Homo sapiens) (UniProt P49674); assay: Inhibition of CK1e at 10 uM
[18] = molecular target: Dual specificity tyrosine-phosphorylation-regulated kinase 2 (Homo sapiens) (UniProt Q92630); assay: Inhibition of DYRK2 at 10 uM
[19] = molecular target: Mitogen-activated protein kinase 3 (Homo sapiens) (UniProt P27361); assay: Inhibition of Erk1 at 10 uM
[20] = molecular target: Mitogen-activated protein kinase kinase kinase kinase 4 (Homo sapiens) (UniProt O95819); assay: Inhibition of HGK at 10 uM
[21] = molecular target: Inhibitor of nuclear factor kappa-B kinase subunit epsilon (Homo sapiens) (UniProt Q14164); assay: Inhibition of IKKe at 10 uM
[22] = molecular target: LKB1-STRAD-MO25 complex (Homo sapiens) (UniProt Q15831+Q7RTN6+Q9Y376); assay: Inhibition of LKB1-MO25a-STRADa at 10 uM; format: protein-complex assay
[23] = molecular target: Serine/threonine-protein kinase 10 (Homo sapiens) (UniProt O94804); assay: Inhibition of LOK at 10 uM
Serine/threonine-protein kinase 10 (Homo sapiens), sequence (O94804 whole entry, looked up): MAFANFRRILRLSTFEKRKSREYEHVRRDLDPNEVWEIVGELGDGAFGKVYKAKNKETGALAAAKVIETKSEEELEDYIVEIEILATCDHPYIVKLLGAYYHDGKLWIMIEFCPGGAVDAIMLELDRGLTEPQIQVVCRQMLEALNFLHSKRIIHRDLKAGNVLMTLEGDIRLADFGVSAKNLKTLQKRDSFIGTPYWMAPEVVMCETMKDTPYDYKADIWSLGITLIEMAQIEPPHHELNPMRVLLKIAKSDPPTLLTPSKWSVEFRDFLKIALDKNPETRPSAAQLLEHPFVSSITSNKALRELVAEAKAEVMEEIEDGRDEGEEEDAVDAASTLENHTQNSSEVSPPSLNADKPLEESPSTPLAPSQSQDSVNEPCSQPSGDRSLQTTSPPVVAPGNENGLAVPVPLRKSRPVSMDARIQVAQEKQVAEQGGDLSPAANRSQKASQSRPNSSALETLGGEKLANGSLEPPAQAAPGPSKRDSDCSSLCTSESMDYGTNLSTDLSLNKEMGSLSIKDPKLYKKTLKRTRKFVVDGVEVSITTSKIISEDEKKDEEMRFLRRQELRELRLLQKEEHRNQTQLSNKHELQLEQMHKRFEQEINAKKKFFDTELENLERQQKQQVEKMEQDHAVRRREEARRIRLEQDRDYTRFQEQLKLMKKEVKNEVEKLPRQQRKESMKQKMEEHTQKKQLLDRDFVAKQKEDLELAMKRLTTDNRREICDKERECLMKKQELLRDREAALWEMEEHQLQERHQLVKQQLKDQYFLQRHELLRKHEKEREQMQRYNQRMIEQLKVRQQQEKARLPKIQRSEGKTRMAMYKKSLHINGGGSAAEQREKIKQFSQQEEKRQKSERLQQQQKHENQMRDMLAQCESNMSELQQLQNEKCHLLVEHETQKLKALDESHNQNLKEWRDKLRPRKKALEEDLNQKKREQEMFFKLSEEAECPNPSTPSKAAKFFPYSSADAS

[24] = molecular target: Dual specificity mitogen-activated protein kinase kinase 2 (Homo sapiens) (UniProt P36507); assay: Inhibition of MAP2K2 at 10 uM
[25] = molecular target: Dual specificity mitogen-activated protein kinase kinase 3 (Homo sapiens) (UniProt P46734); assay: Inhibition of MAP2K3 at 10 uM
[26] = molecular target: Dual specificity mitogen-activated protein kinase kinase 6 (Homo sapiens) (UniProt P52564); assay: Inhibition of MAP2K6 at 10 uM
[27] = molecular target: Mitogen-activated protein kinase kinase kinase 2 (Homo sapiens) (UniProt Q9Y2U5); assay: Inhibition of MAP3K2 at 10 uM
[28] = molecular target: Mitogen-activated protein kinase kinase kinase 3 (Homo sapiens) (UniProt Q99759); assay: Inhibition of MAP3K3 at 10 uM
[29] = molecular target: MAP kinase-activated protein kinase 2 (Homo sapiens) (UniProt P49137); assay: Inhibition of MAPKAPK2 at 10 uM
[30] = molecular target: Mitogen-activated protein kinase kinase kinase 11 (Homo sapiens) (UniProt Q16584); assay: Inhibition of MLK3 at 10 uM
Mitogen-activated protein kinase kinase kinase 11 (Homo sapiens), sequence (Q16584 whole entry, looked up): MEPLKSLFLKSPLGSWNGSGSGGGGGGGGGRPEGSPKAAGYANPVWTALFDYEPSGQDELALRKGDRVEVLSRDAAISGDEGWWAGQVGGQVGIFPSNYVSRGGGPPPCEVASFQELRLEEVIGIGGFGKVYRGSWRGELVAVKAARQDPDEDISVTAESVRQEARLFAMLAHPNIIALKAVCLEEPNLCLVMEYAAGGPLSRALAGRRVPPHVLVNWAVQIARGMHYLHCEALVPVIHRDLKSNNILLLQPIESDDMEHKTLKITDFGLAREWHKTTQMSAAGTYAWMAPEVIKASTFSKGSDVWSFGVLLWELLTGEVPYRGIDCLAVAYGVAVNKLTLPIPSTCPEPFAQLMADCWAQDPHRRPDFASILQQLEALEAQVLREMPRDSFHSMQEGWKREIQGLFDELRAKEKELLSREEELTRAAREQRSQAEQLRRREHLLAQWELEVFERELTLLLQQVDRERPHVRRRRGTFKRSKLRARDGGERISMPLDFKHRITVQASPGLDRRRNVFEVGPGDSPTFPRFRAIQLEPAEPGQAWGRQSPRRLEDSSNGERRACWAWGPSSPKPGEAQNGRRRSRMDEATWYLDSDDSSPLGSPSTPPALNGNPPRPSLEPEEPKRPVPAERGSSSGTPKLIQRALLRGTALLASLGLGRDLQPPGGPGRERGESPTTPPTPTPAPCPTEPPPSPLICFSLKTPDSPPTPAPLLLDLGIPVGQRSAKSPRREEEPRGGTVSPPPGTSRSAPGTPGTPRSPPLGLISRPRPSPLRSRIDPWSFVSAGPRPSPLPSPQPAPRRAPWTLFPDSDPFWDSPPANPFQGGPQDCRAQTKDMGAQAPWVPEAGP

[31] = molecular target: Proto-oncogene serine/threonine-protein kinase mos (Homo sapiens) (UniProt P00540); assay: Inhibition of MOS at 10 uM
[32] = molecular target: Serine/threonine-protein kinase MRCK alpha (Homo sapiens) (UniProt Q5VT25); assay: Inhibition of MRCKa at 10 uM
[33] = molecular target: Ribosomal protein S6 kinase alpha-5 (Homo sapiens) (UniProt O75582); assay: Inhibition of MSK1 N-terminal at 10 uM
[34] = molecular target: Serine/threonine-protein kinase Nek2 (Homo sapiens) (UniProt P51955); assay: Inhibition of NEK2 at 10 uM
[35] = molecular target: Serine/threonine-protein kinase PAK 6 (Homo sapiens) (UniProt Q9NQU5); assay: Inhibition of PAK6 at 10 uM
[36] = molecular target: Lymphokine-activated killer T-cell-originated protein kinase (Homo sapiens) (UniProt Q96KB5); assay: Inhibition of PBK at 10 uM
[37] = molecular target: [Pyruvate dehydrogenase (acetyl-transferring)] kinase isozyme 2, mitochondrial (Homo sapiens) (UniProt Q15119); assay: Inhibition of PDHK2 at 10 uM
[38] = molecular target: Interferon-induced, double-stranded RNA-activated protein kinase (Homo sapiens) (UniProt P19525); assay: Inhibition of PKR at 10 uM
Interferon-induced, double-stranded RNA-activated protein kinase (Homo sapiens), sequence (P19525 whole entry): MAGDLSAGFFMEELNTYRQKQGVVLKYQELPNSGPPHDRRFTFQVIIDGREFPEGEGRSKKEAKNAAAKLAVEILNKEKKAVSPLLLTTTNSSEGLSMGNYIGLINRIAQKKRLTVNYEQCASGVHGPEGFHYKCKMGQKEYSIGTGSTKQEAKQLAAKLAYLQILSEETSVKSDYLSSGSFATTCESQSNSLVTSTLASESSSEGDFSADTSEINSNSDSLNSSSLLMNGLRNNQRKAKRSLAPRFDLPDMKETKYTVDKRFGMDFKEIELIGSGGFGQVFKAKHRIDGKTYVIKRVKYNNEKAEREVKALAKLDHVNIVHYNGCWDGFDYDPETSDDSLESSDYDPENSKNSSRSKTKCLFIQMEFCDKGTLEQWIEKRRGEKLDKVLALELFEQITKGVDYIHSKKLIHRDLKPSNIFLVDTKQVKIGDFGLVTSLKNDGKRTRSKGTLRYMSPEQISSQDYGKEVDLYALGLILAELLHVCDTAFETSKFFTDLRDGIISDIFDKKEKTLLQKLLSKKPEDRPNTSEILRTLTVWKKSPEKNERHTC

[39] = molecular target: RAF proto-oncogene serine/threonine-protein kinase (Homo sapiens) (UniProt P04049); assay: Inhibition of RAF1 at 10 uM
[40] = molecular target: Ribosomal protein S6 kinase alpha-1 (Homo sapiens) (UniProt Q15418); assay: Inhibition of RSK1 N-terminal at 10 uM
[41] = molecular target: Serine/threonine-protein kinase Sgk3 (Homo sapiens) (UniProt Q96BR1); assay: Inhibition of SGK3 at 10 uM
[42] = molecular target: Serine/threonine-protein kinase SIK1 (Homo sapiens) (UniProt P57059); assay: Inhibition of SIK at 10 uM
[43] = molecular target: SRSF protein kinase 1 (Homo sapiens) (UniProt Q96SB4); assay: Inhibition of SRPK1 at 10 uM
[44] = molecular target: Dual specificity tyrosine-phosphorylation-regulated kinase 1A (Homo sapiens) (UniProt Q13627); settings: 10 uM

COc1ccc2c3ccnc(C(F)(F)F)c3n(CCCCN)c2c1
inhibition [1]: 3% | inhibition [2]: 9% | inhibition [3]: 4% | inhibition [4]: 9% | inhibition [5]: 23% | inhibition [6]: 16% | inhibition [7]: 0% | inhibition [8]: 8% | inhibition [9]: 34% | inhibition [10]: 30% | inhibition [11]: 91% | inhibition [12]: 31% | inhibition [13]: 25% | inhibition [14]: 66% | inhibition [15]: 60% | inhibition [16]: 93% | inhibition [17]: 41% | inhibition [18]: 86% | inhibition [19]: 2% | inhibition [20]: 62% | inhibition [21]: 0% | inhibition [22]: 21% | inhibition [23]: 20% | inhibition [24]: 6% | inhibition [25]: 38% | inhibition [26]: 46% | inhibition [27]: 13% | inhibition [28]: 0% | inhibition [29]: 7% | inhibition [30]: 3% | inhibition [31]: 16% | inhibition [32]: 18% | inhibition [33]: 36% | inhibition [34]: 1% | inhibition [35]: 13% | inhibition [36]: 12% | inhibition [37]: 0% | inhibition [38]: 6% | inhibition [39]: 0% | inhibition [40]: 27% | inhibition [41]: 13% | inhibition [42]: 8% | inhibition [43]: 7% | inhibition [44]: 100%
